Test results taken from publication PMC6973020, “Quinoline‐Conjugated Ruthenacarboranes: Toward Hybrid Drugs with a Dual Mode of Action” (Chemmedchem, 2019).

Tests used:
LN229 cells = assay: DAPI staining, fluorescence microscopy, LN229; assay type: cell-based, human; conditions: LN229, 40 μM, 72 h
Method: Flow cytometry. For gaining better insights into the mechanisms of action of the ruthenium complexes, MCF‐7 and LN229 cells incubated with an IC50 dose of 3 or 4, were analyzed via flow cytometry. Several staining protocols were carried out in parallel, in independent experiments: i) AnnV/PI for the detection of apoptotic cell death, ii) AO for the detection of acidic vacuoles, iii) ApoStat for checking caspase activation, iv) CFSE for detecting interference with cellular proliferation, and v) DAPI for the detection of morphological signs of apoptosis. Untreated cells or cells treated only with BSA (control) were also measured, as reference for BSA‐free and BSA‐containing drug formulations, respectively. […] Channels FL1 (green emission), FL2 (orange emission) and/or FL3 (dark red emission) were used for fluorescence detection, according to the specific staining agent. Sideward Scatter (SSC) for MCF‐7 cells treated with 4 or BSA−4 was also analyzed, with respect to the control, for detection of shifts of cell granularity. […]
FCS, 2 mM L‐glutamine, 0.01% sodium pyruvate and antibiotics, at 37 °C in a humidified atmosphere with 5% CO2. […] Cells were counted and seeded in 96‐well plates and incubated overnight, as described above. […]
Staining Protocols for Flow Cytometric Analysis. […] Finally, cells were washed in PBS, resuspended in PBS (or AnnV‐binding buffer for AnnV/PI), and analysed. […]

[1] = tested on: A375, B16 and MCF‐7 cell lines; assay: CV cell viability assay, summary for A375, B16 and MCF‐7; assay type: cell-based; conditions: range over the three cell lines, 72 h
Excerpt: Thus, care must be taken when comparing their biological activities with those of our previous studies, even with the same cell line, because the covalent vs. non‐covalent combination of drugs might imply different mechanisms of action in the cell.44 Here, we studied the in vitro activity of ruthenacarborane 3, i. e. free acid, and its 8‐hydroxyquinolyl (4) and 4‐{(7‐chloroquinolin‐4‐yl)oxy}butanol‐1‐yl (5) esters, against a panel of cancer cell lines (B16 mouse melanoma, A375 human skin melanoma, MCF‐7 human breast adenocarcinoma, LN229 human glioblastoma, U251 human glioma). Human fibroblast cell line MRC‐5, murine microglial cell line BV‐2 as well as peritoneal exudate cells (Mph), were chosen as models for non‐malignant cells. […] Cells were exposed to 3–5 for 72 h, after which cell viability was determined via 3‐(4,5‐dimethylthiazol‐2‐yl)‐2,5‐diphenyltetrazolium bromide (MTT) and crystal violet (CV) assays, in parallel (Table 2). […]
Colorimetric assays for cellular viability. […] The absorbance was measured with an automated microplate reader at λmax 540 nm, with the reference λmax 670 nm. Untreated cells or cells treated only with BSA (control) were also measured, as reference for BSA‐free and BSA‐containing drug formulations, respectively. […] Cell viability is expressed as percentage (%) relative to control (untreated cultures).58 Experiments were run in three independent replicates. […]

Substance	morphological features of apoptosis (DAPI) (LN229 cells)	IC50 [1]
closo ‐[3‐(η^6‐p‐Cymene)‐1‐(quinolin‐8‐yl‐acetate)‐3,1,2‐RuC2B9H10] [Compound 4]	several typical morphological features of apoptosis	–
closo‐ [Compound 3, closo‐ [3‐(η^6‐p‐Cymene)‐1‐(CH2COOH)‐3,1,2‐RuC2B9H10]]	–	18 to 23 µM
